Measured values as given in US10626093B2, “Polymorphic form of crystalline rosuvastatin calcium and novel processes for crystalline as well as amorphous rosuvastatin calcium” (MOREPEN LABORATORIES LIMITED, priority 2016, dated 2020).

How the values were obtained:
[1] = Stability study of Rosuvastatin calcium form M (30° C./65% RH and 40° C./75% RH); type: physicochemical
Protocol: According to one more aspect of current invention, the form M is stable at 30° C. with 65% RH for 48 months & 40° C. with 75% RH for 6 months for all ICH/EP/USP grade.

[2] = Stability study of Rosuvastatin calcium form M2 (plant batches, RT); type: physicochemical
Protocol: According to still another embodiment of current invention, The form M2 is stable at 30° C. with 65% RH for 24 months & 40° C. with 75% RH for 6 months for all ICH/EP/USP grade.

[3] = 40° C. with 75% RH for 6 months

7-[4-(4-flurophenyl)-6-isopropyl-2-(N-methyl-N-methylsulfonylamino)-pyrimidin-5-yl]-(3R,5S)-dihydroxy-hept-6-enoic acid Calcium salt [form M]
Stability ([1]; 30° C. with 65% RH for 48 months): stable | Assay (OAB) ([1]; 30° C./65% RH, 3 months): 99.58 % w/w | Description ([1]; 30° C./65% RH, 3 months): A white | Related Substances (HPLC) Individual Unknown Imp. ([1]; 30° C./65% RH, 3 months): 0.02% | Related Substances (HPLC) Lactone ([1]; 30° C./65% RH, 3 months): 0.05% | Related Substances (HPLC) RT-07 ([1]; 30° C./65% RH, 3 months): 0.05% | Related Substances (HPLC) Total Imp. ([1]; 30° C./65% RH, 3 months): 0.16% | Water ([1]; 30° C./65% RH, 3 months): 5.30% | Assay (OAB) ([1]; 30° C./65% RH, 6 months): 99.54 % w/w | Description ([1]; 30° C./65% RH, 6 months): A white | Related Substances (HPLC) Individual Unknown Imp. ([1]; 30° C./65% RH, 6 months): 0.04% | Related Substances (HPLC) Lactone ([1]; 30° C./65% RH, 6 months): 0.04% | Related Substances (HPLC) RT-07 ([1]; 30° C./65% RH, 6 months): 0.05% | Related Substances (HPLC) Total Imp. ([1]; 30° C./65% RH, 6 months): 0.14% | Water ([1]; 30° C./65% RH, 6 months): 5.43% | Assay (OAB) ([1]; 30° C./65% RH, 9 months): 99.33 % w/w | Description ([1]; 30° C./65% RH, 9 months): A white | Related Substances (HPLC) Individual Unknown Imp. ([1]; 30° C./65% RH, 9 months): 0.02% | Related Substances (HPLC) Lactone ([1]; 30° C./65% RH, 9 months): 0.04% | Related Substances (HPLC) RT-07 ([1]; 30° C./65% RH, 9 months): 0.05% | Related Substances (HPLC) Total Imp. ([1]; 30° C./65% RH, 9 months): 0.14% | Water ([1]; 30° C./65% RH, 9 months): 5.44% | Assay (OAB) ([1]; 30° C./65% RH, 12 months): 99.55 % w/w | Description ([1]; 30° C./65% RH, 12 months): A white | Related Substances (HPLC) Anti-Isomer ([1]; 30° C./65% RH, 12 months): 0.04% | Related Substances (HPLC) Individual Unknown Imp. ([1]; 30° C./65% RH, 12 months): 0.02% | Related Substances (HPLC) Lactone ([1]; 30° C./65% RH, 12 months): 0.05% | Related Substances (HPLC) RT-07 ([1]; 30° C./65% RH, 12 months): 0.06% | Related Substances (HPLC) Total Imp. ([1]; 30° C./65% RH, 12 months): 0.17% | Water ([1]; 30° C./65% RH, 12 months): 5.55% | Assay (OAB) ([1]; 30° C./65% RH, 18 months): 99.70 % w/w | Description ([1]; 30° C./65% RH, 18 months): A white | Related Substances (HPLC) Anti-Isomer ([1]; 30° C./65% RH, 18 months): 0.03% | Related Substances (HPLC) Individual Unknown Imp. ([1]; 30° C./65% RH, 18 months): 0.02% | Related Substances (HPLC) Lactone ([1]; 30° C./65% RH, 18 months): 0.04% | Related Substances (HPLC) RT-07 ([1]; 30° C./65% RH, 18 months): 0.05% | Related Substances (HPLC) Total Imp. ([1]; 30° C./65% RH, 18 months): 0.16% | Water ([1]; 30° C./65% RH, 18 months): 5.57% | Assay (OAB) ([1]; 30° C./65% RH, 24 months): 99.81 % w/w | Description ([1]; 30° C./65% RH, 24 months): A white | Related Substances (HPLC) Anti-Isomer ([1]; 30° C./65% RH, 24 months): 0.04% | Related Substances (HPLC) Individual Unknown Imp. ([1]; 30° C./65% RH, 24 months): 0.02% | Related Substances (HPLC) Lactone ([1]; 30° C./65% RH, 24 months): 0.04% | Related Substances (HPLC) RT-07 ([1]; 30° C./65% RH, 24 months): 0.05% | Related Substances (HPLC) Total Imp. ([1]; 30° C./65% RH, 24 months): 0.15% | Water ([1]; 30° C./65% RH, 24 months): 5.72% | Assay (OAB) ([1]; 30° C./65% RH, 36 months): 99.75 % w/w | Description ([1]; 30° C./65% RH, 36 months): A white | Related Substances (HPLC) Anti-Isomer ([1]; 30° C./65% RH, 36 months): 0.04% | Related Substances (HPLC) Individual Unknown Imp. ([1]; 30° C./65% RH, 36 months): 0.02% | Related Substances (HPLC) Lactone ([1]; 30° C./65% RH, 36 months): 0.04% | Related Substances (HPLC) RT-07 ([1]; 30° C./65% RH, 36 months): 0.05% | Related Substances (HPLC) Total Imp. ([1]; 30° C./65% RH, 36 months): 0.16% | Water ([1]; 30° C./65% RH, 36 months): 5.74% | Assay (OAB) ([1]; 30° C./65% RH, 48 months): 99.66 % w/w | Description ([1]; 30° C./65% RH, 48 months): A white | Related Substances (HPLC) Anti-Isomer ([1]; 30° C./65% RH, 48 months): 0.05% | Related Substances (HPLC) Individual Unknown Imp. ([1]; 30° C./65% RH, 48 months): 0.02% | Related Substances (HPLC) Lactone ([1]; 30° C./65% RH, 48 months): 0.04% | Related Substances (HPLC) RT-07 ([1]; 30° C./65% RH, 48 months): 0.05% | Related Substances (HPLC) Total Imp. ([1]; 30° C./65% RH, 48 months): 0.16% | Water ([1]; 30° C./65% RH, 48 months): 5.90% | Stability [1, 3]: stable | Assay (OAB) ([1]; 40° C./75% RH, 1 month): 100.03 % w/w | Description ([1]; 40° C./75% RH, 1 month): A white | Related Substances (HPLC) Individual Unknown Imp. ([1]; 40° C./75% RH, 1 month): 0.03% | Related Substances (HPLC) Lactone ([1]; 40° C./75% RH, 1 month): 0.04% | Related Substances (HPLC) RT-07 ([1]; 40° C./75% RH, 1 month): 0.05% | Related Substances (HPLC) Total Imp. ([1]; 40° C./75% RH, 1 month): 0.14% | Water ([1]; 40° C./75% RH, 1 month): 5.65% | Assay (OAB) ([1]; 40° C./75% RH, 2 months): 99.93 % w/w | Description ([1]; 40° C./75% RH, 2 months): A white | Related Substances (HPLC) Individual Unknown Imp. ([1]; 40° C./75% RH, 2 months): 0.02% | Related Substances (HPLC) Lactone ([1]; 40° C./75% RH, 2 months): 0.04% | Related Substances (HPLC) RT-07 ([1]; 40° C./75% RH, 2 months): 0.05% | Related Substances (HPLC) Total Imp. ([1]; 40° C./75% RH, 2 months): 0.15% | Water ([1]; 40° C./75% RH, 2 months): 5.59% | Assay (OAB) ([1]; 40° C./75% RH, 3 months): 100.03 % w/w | Description ([1]; 40° C./75% RH, 3 months): A white | Related Substances (HPLC) Individual Unknown Imp. ([1]; 40° C./75% RH, 3 months): 0.02% | Related Substances (HPLC) Lactone ([1]; 40° C./75% RH, 3 months): 0.04% | Related Substances (HPLC) RT-07 ([1]; 40° C./75% RH, 3 months): 0.05% | Related Substances (HPLC) Total Imp. ([1]; 40° C./75% RH, 3 months): 0.13% | Water ([1]; 40° C./75% RH, 3 months): 5.66% | Assay (OAB) ([1]; 40° C./75% RH, 6 months): 99.59 % w/w | Description ([1]; 40° C./75% RH, 6 months): A white | Related Substances (HPLC) Individual Unknown Imp. ([1]; 40° C./75% RH, 6 months): 0.02% | Related Substances (HPLC) Lactone ([1]; 40° C./75% RH, 6 months): 0.04% | Related Substances (HPLC) RT-07 ([1]; 40° C./75% RH, 6 months): 0.04% | Related Substances (HPLC) Total Imp. ([1]; 40° C./75% RH, 6 months): 0.12% | Water ([1]; 40° C./75% RH, 6 months): 5.63% | Assay (OAB) ([1]; Initial): 100.08 % w/w | Description ([1]; Initial): A white | Related Substances (HPLC) Individual Unknown Imp. ([1]; Initial): 0.02% | Related Substances (HPLC) Lactone ([1]; Initial): 0.02% | Related Substances (HPLC) RT-07 ([1]; Initial): 0.05% | Related Substances (HPLC) Total Imp. ([1]; Initial): 0.13% | Water ([1]; Initial): 5.06%

7-[4-(4-flurophenyl)-6-isopropyl-2-(N-methyl-N-methyl sulfonyl amino)-pyrimidin-5-yl]-(3R,5S)-dihydroxy-hept-6-enoic acid Calcium salt [form M2]
Stability ([2]; 30° C. with 65% RH for 24 months): stable | Stability [2, 3]: stable
